Reference: PubChem BioAssay (NCI)
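48-hour exposure; five concentrations; linearly interpolated endpoints. Here, GI50 denotes the concentration required for 50% inhibition of growth. At the TGI there is no net growth.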

Experiments:
Assay in all cases: inhibition of tumour cell growth, NCI panel, 48 h
SF-295 CNS = tested on: SF-295 CNS
DU-145 prostate = tested on: DU-145 prostate
PC-3 prostate = tested on: PC-3 prostate
U251 CNS = tested on: U251 CNS
HCC-2998 colon = tested on: HCC-2998 colon
HL-60(TB) leukemia = tested on: HL-60(TB) leukemia
MDA-MB-231 breast = tested on: MDA-MB-231 breast
SK-OV-3 ovarian = tested on: SK-OV-3 ovarian
MDA-MB-435 = tested on: MDA-MB-435
M14 melanoma = tested on: M14 melanoma
HCT-116 colon = tested on: HCT-116 colon
A549 NSCLC = tested on: A549 NSCLC
SK-MEL-5 melanoma = tested on: SK-MEL-5 melanoma
MALME-3M melanoma = tested on: MALME-3M melanoma
NCI-H460 lung = tested on: NCI-H460 lung
HS 578T breast = tested on: HS 578T breast
MCF7 breast = tested on: MCF7 breast
NCI-H23 lung = tested on: NCI-H23 lung
SR leukemia = tested on: SR leukemia
NCI-H522 lung = tested on: NCI-H522 lung
CCRF-CEM leukemia = tested on: CCRF-CEM leukemia
SNB-19 CNS = tested on: SNB-19 CNS
UACC-62 melanoma = tested on: UACC-62 melanoma
NCI-H226 lung = tested on: NCI-H226 lung
SK-MEL-28 melanoma = tested on: SK-MEL-28 melanoma
TK-10 renal = tested on: TK-10 renal
A498 renal = tested on: A498 renal
SW-620 colon = tested on: SW-620 colon
SNB-75 CNS = tested on: SNB-75 CNS
OVCAR-8 ovarian = tested on: OVCAR-8 ovarian
COLO 205 colon = tested on: COLO 205 colon
HCT-15 colon = tested on: HCT-15 colon
NCI/ADR-RES ovarian = tested on: NCI/ADR-RES ovarian
SN12C renal = tested on: SN12C renal
OVCAR-4 ovarian = tested on: OVCAR-4 ovarian
BT-549 breast = tested on: BT-549 breast
KM12 colon = tested on: KM12 colon
RXF 393 renal = tested on: RXF 393 renal
786-0 renal = tested on: 786-0 renal
HOP-62 NSCLC = tested on: HOP-62 NSCLC
OVCAR-5 ovarian = tested on: OVCAR-5 ovarian
K-562 leukemia = tested on: K-562 leukemia
ACHN renal = tested on: ACHN renal
SK-MEL-2 melanoma = tested on: SK-MEL-2 melanoma
OVCAR-3 ovarian = tested on: OVCAR-3 ovarian
IGROV1 ovarian = tested on: IGROV1 ovarian
SF-539 CNS = tested on: SF-539 CNS
UACC-257 melanoma = tested on: UACC-257 melanoma
LOX IMVI melanoma = tested on: LOX IMVI melanoma
HT29 colon = tested on: HT29 colon
MOLT-4 leukemia = tested on: MOLT-4 leukemia
UO-31 renal = tested on: UO-31 renal
EKVX NSCLC = tested on: EKVX NSCLC
RPMI-8226 leukemia = tested on: RPMI-8226 leukemia
CAKI-1 renal = tested on: CAKI-1 renal
SF-268 CNS = tested on: SF-268 CNS
T-47D breast = tested on: T-47D breast
HOP-92 NSCLC = tested on: HOP-92 NSCLC

Cn1cc(-c2ccc(-c3cn(C)c4ccc(Cl)cc34)s2)c2cc(Cl)ccc21
GI50 (SF-295 CNS): > 100 µM
TGI (SF-295 CNS): > 100 µM
GI50 (DU-145 prostate): > 100 µM
TGI (DU-145 prostate): > 100 µM
GI50 (PC-3 prostate): > 100 µM
TGI (PC-3 prostate): > 100 µM
GI50 (U251 CNS): > 100 µM
TGI (U251 CNS): > 100 µM
GI50 (HCC-2998 colon): > 100 µM
TGI (HCC-2998 colon): > 100 µM
GI50 (HL-60(TB) leukemia): > 100 µM
TGI (HL-60(TB) leukemia): > 100 µM
GI50 (MDA-MB-231 breast): > 100 µM
TGI (MDA-MB-231 breast): > 100 µM
GI50 (SK-OV-3 ovarian): > 100 µM
TGI (SK-OV-3 ovarian): > 100 µM
GI50 (MDA-MB-435): > 100 µM
TGI (MDA-MB-435): > 100 µM
GI50 (M14 melanoma): > 100 µM
TGI (M14 melanoma): > 100 µM
GI50 (HCT-116 colon): > 100 µM
TGI (HCT-116 colon): > 100 µM
GI50 (A549 NSCLC): > 100 µM
TGI (A549 NSCLC): > 100 µM
GI50 (SK-MEL-5 melanoma): > 100 µM
TGI (SK-MEL-5 melanoma): > 100 µM
GI50 (MALME-3M melanoma): > 100 µM
TGI (MALME-3M melanoma): > 100 µM
GI50 (NCI-H460 lung): > 100 µM
TGI (NCI-H460 lung): > 100 µM
GI50 (HS 578T breast): > 100 µM
TGI (HS 578T breast): > 100 µM
GI50 (MCF7 breast): > 100 µM
TGI (MCF7 breast): > 100 µM
GI50 (NCI-H23 lung): > 100 µM
TGI (NCI-H23 lung): > 100 µM
GI50 (SR leukemia): > 100 µM
TGI (SR leukemia): > 100 µM
GI50 (NCI-H522 lung): > 100 µM
TGI (NCI-H522 lung): > 100 µM
GI50 (CCRF-CEM leukemia): > 100 µM
TGI (CCRF-CEM leukemia): > 100 µM
GI50 (SNB-19 CNS): > 100 µM
TGI (SNB-19 CNS): > 100 µM
GI50 (UACC-62 melanoma): > 100 µM
TGI (UACC-62 melanoma): > 100 µM
GI50 (NCI-H226 lung): > 100 µM
TGI (NCI-H226 lung): > 100 µM
GI50 (SK-MEL-28 melanoma): > 100 µM
TGI (SK-MEL-28 melanoma): > 100 µM
GI50 (TK-10 renal): > 100 µM
TGI (TK-10 renal): > 100 µM
GI50 (A498 renal): > 100 µM
TGI (A498 renal): > 100 µM
GI50 (SW-620 colon): > 100 µM
TGI (SW-620 colon): > 100 µM
GI50 (SNB-75 CNS): > 100 µM
TGI (SNB-75 CNS): > 100 µM
GI50 (OVCAR-8 ovarian): > 100 µM
TGI (OVCAR-8 ovarian): > 100 µM
GI50 (COLO 205 colon): > 100 µM
TGI (COLO 205 colon): > 100 µM
GI50 (HCT-15 colon): > 100 µM
TGI (HCT-15 colon): > 100 µM
GI50 (NCI/ADR-RES ovarian): > 100 µM
TGI (NCI/ADR-RES ovarian): > 100 µM
GI50 (SN12C renal): > 100 µM
TGI (SN12C renal): > 100 µM
GI50 (OVCAR-4 ovarian): > 100 µM
TGI (OVCAR-4 ovarian): > 100 µM
GI50 (BT-549 breast): > 100 µM
TGI (BT-549 breast): > 100 µM
GI50 (KM12 colon): > 100 µM
TGI (KM12 colon): > 100 µM
GI50 (RXF 393 renal): 70.3 µM
TGI (RXF 393 renal): > 100 µM
GI50 (786-0 renal): > 100 µM
TGI (786-0 renal): > 100 µM
GI50 (HOP-62 NSCLC): > 100 µM
TGI (HOP-62 NSCLC): > 100 µM
GI50 (OVCAR-5 ovarian): > 100 µM
TGI (OVCAR-5 ovarian): > 100 µM
GI50 (K-562 leukemia): > 100 µM
TGI (K-562 leukemia): > 100 µM
GI50 (ACHN renal): > 100 µM
TGI (ACHN renal): > 100 µM
GI50 (SK-MEL-2 melanoma): > 100 µM
TGI (SK-MEL-2 melanoma): > 100 µM
GI50 (OVCAR-3 ovarian): > 100 µM
TGI (OVCAR-3 ovarian): > 100 µM
GI50 (IGROV1 ovarian): > 100 µM
TGI (IGROV1 ovarian): > 100 µM
GI50 (SF-539 CNS): > 100 µM
TGI (SF-539 CNS): > 100 µM
GI50 (UACC-257 melanoma): > 100 µM
TGI (UACC-257 melanoma): > 100 µM
GI50 (LOX IMVI melanoma): > 100 µM
TGI (LOX IMVI melanoma): > 100 µM
GI50 (HT29 colon): > 100 µM
TGI (HT29 colon): > 100 µM
GI50 (MOLT-4 leukemia): > 100 µM
TGI (MOLT-4 leukemia): > 100 µM
GI50 (UO-31 renal): > 100 µM
TGI (UO-31 renal): > 100 µM
GI50 (EKVX NSCLC): > 100 µM
TGI (EKVX NSCLC): > 100 µM
GI50 (RPMI-8226 leukemia): > 100 µM
TGI (RPMI-8226 leukemia): > 100 µM
GI50 (CAKI-1 renal): > 100 µM
TGI (CAKI-1 renal): > 100 µM
GI50 (SF-268 CNS): > 100 µM
TGI (SF-268 CNS): > 100 µM

CC(C)(C)OC(=O)N(CCNS(=O)(=O)c1cccc2cnccc12)CCC(=O)ON1C(=O)CCC1=O
TGI (SF-295 CNS): > 100 µM
TGI (DU-145 prostate): > 100 µM
TGI (PC-3 prostate): > 100 µM
TGI (U251 CNS): > 100 µM
TGI (MDA-MB-231 breast): > 100 µM
TGI (SK-OV-3 ovarian): > 100 µM
TGI (MDA-MB-435): > 100 µM
TGI (M14 melanoma): > 100 µM
TGI (HCT-116 colon): > 100 µM
TGI (A549 NSCLC): > 100 µM
TGI (SK-MEL-5 melanoma): > 100 µM
TGI (MALME-3M melanoma): > 100 µM
TGI (NCI-H460 lung): > 100 µM
TGI (HS 578T breast): > 100 µM
TGI (MCF7 breast): > 100 µM
TGI (NCI-H23 lung): > 100 µM
TGI (SR leukemia): > 100 µM
TGI (NCI-H522 lung): > 100 µM
TGI (SNB-19 CNS): > 100 µM
TGI (UACC-62 melanoma): > 100 µM
TGI (NCI-H226 lung): > 100 µM
TGI (SK-MEL-28 melanoma): > 100 µM
TGI (TK-10 renal): > 100 µM
TGI (SW-620 colon): > 100 µM
TGI (SNB-75 CNS): > 100 µM
TGI (OVCAR-8 ovarian): > 100 µM
TGI (COLO 205 colon): > 100 µM
TGI (HCT-15 colon): > 100 µM
TGI (NCI/ADR-RES ovarian): > 100 µM
TGI (SN12C renal): > 100 µM
TGI (T-47D breast): > 100 µM
TGI (OVCAR-4 ovarian): > 100 µM
TGI (BT-549 breast): > 100 µM
TGI (RXF 393 renal): > 100 µM
TGI (786-0 renal): > 100 µM
TGI (HOP-62 NSCLC): > 100 µM
TGI (OVCAR-5 ovarian): > 100 µM
TGI (K-562 leukemia): > 100 µM
TGI (ACHN renal): > 100 µM
TGI (SK-MEL-2 melanoma): > 100 µM
TGI (HOP-92 NSCLC): > 100 µM
TGI (OVCAR-3 ovarian): > 100 µM
TGI (IGROV1 ovarian): > 100 µM
TGI (UACC-257 melanoma): > 100 µM
TGI (LOX IMVI melanoma): > 100 µM
TGI (HT29 colon): > 100 µM
TGI (MOLT-4 leukemia): > 100 µM
TGI (UO-31 renal): > 100 µM
TGI (EKVX NSCLC): > 100 µM
TGI (RPMI-8226 leukemia): > 100 µM
TGI (SF-268 CNS): > 100 µM
